The values that follow come from US9126056B2, “Method of promoting hair growth” (ENERGENESIS BIOMEDICAL CO., LTD., priority 2010, dated 2015).

The test system of this assay is human dermal papilla cells. In words: Human dermal papilla cell proliferation test. It counts as cell-based. The conditions noted are these: 0.002% in culture media; cell count at 12-60 hour; FIG. 1. On the procedure: The promotion of cell proliferation by adenine was evaluated using human dermal papilla cells, compared with adenosine, and minoxidil under the following conditions, the results are shown in FIG. 1.
Determination of the proliferation of human dermal papilla cells in the culture media containing adenine, adenosine, and minoxidil. Supplements: 0.002% of adenine, adenosine, minoxidil.
• (1) Prepare 0.002% adenine, adenosine, minoxidil containing testing media using the hair follicle dermal papilla cell media (cat. No. 611-500, Cell applications, Inc). • (2) Seed the isolated human dermal papilla cells in 96-well culture plate with a density of 5,000 cells per well. Add 0.1 mL prepared culture media into individual well. • (3) At 12, 24, 36, 48 and 60 hour after cell seeding, visually count the total cell number using hemacytometer. • (4) Evaluate the result.

As for `Nc1ncnc2nc[nH]c12` [adenine], the “proliferation of human dermal papilla cells (in words)” value is “promotes the proliferation”.
